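Growth conditions: 96-well plates. Treatment: test compound, 48 hours, 5 concentrations. Analysis: linear interpolation between bracketing concentrations; unreached endpoints set to highest concentration. At the TGI there is no net growth.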
Legend:
Assay in all cases: inhibition of tumour cell growth, NCI panel, 48 h
NCI-H522 lung = system: NCI-H522 lung
SW-620 colon = system: SW-620 colon
HL-60(TB) leukemia = system: HL-60(TB) leukemia
U251 CNS = system: U251 CNS
SK-OV-3 ovarian = system: SK-OV-3 ovarian
SK-MEL-2 melanoma = system: SK-MEL-2 melanoma
TK-10 renal = system: TK-10 renal
LXFL 529 NSCLC = system: LXFL 529 NSCLC
SNB-78 CNS = system: SNB-78 CNS
SK-MEL-28 melanoma = system: SK-MEL-28 melanoma
OVCAR-8 ovarian = system: OVCAR-8 ovarian
NCI-H23 lung = system: NCI-H23 lung
DMS 273 small cell lung = system: DMS 273 small cell lung
HOP-62 NSCLC = system: HOP-62 NSCLC
DMS 114 small cell lung = system: DMS 114 small cell lung
UACC-62 melanoma = system: UACC-62 melanoma
CAKI-1 renal = system: CAKI-1 renal
RXF 393 renal = system: RXF 393 renal
SNB-19 CNS = system: SNB-19 CNS
HCT-15 colon = system: HCT-15 colon
HOP-18 NSCLC = system: HOP-18 NSCLC
M19-MEL melanoma = system: M19-MEL melanoma
ACHN renal = system: ACHN renal
MALME-3M melanoma = system: MALME-3M melanoma
HT29 colon = system: HT29 colon
COLO 205 colon = system: COLO 205 colon
OVCAR-4 ovarian = system: OVCAR-4 ovarian
KM12 colon = system: KM12 colon
SK-MEL-5 melanoma = system: SK-MEL-5 melanoma
UACC-257 melanoma = system: UACC-257 melanoma
HOP-92 NSCLC = system: HOP-92 NSCLC
RPMI-8226 leukemia = system: RPMI-8226 leukemia
OVCAR-3 ovarian = system: OVCAR-3 ovarian
XF 498 CNS = system: XF 498 CNS
786-0 renal = system: 786-0 renal
SF-268 CNS = system: SF-268 CNS
A549 NSCLC = system: A549 NSCLC
LOX IMVI melanoma = system: LOX IMVI melanoma
CCRF-CEM leukemia = system: CCRF-CEM leukemia
A498 renal = system: A498 renal
UO-31 renal = system: UO-31 renal
EKVX NSCLC = system: EKVX NSCLC
MOLT-4 leukemia = system: MOLT-4 leukemia
SF-295 CNS = system: SF-295 CNS
DLD-1 colon = system: DLD-1 colon
SR leukemia = system: SR leukemia
K-562 leukemia = system: K-562 leukemia
SF-539 CNS = system: SF-539 CNS
SN12C renal = system: SN12C renal
HCT-116 colon = system: HCT-116 colon
RXF-631 renal = system: RXF-631 renal
OVCAR-5 ovarian = system: OVCAR-5 ovarian
NCI-H460 lung = system: NCI-H460 lung
NCI-H226 lung = system: NCI-H226 lung
M14 melanoma = system: M14 melanoma
IGROV1 ovarian = system: IGROV1 ovarian
SNB-75 CNS = system: SNB-75 CNS

Measured: TGI

O=C(O)CC(O)(c1ccccc1C(=O)O)c1cccc2ccccc12 (configuration not stated)
> 100 µM: all assays above

Source: PubChem BioAssay (NCI)
